T1: ppGalNAc-T3 (Homo sapiens, UniProt Q14435)
T1 construct: gene GALNT3; purified lumenal domain (containing catalytic and lectin domains)
T1 sequence (Q14435 38-633 limits assumed): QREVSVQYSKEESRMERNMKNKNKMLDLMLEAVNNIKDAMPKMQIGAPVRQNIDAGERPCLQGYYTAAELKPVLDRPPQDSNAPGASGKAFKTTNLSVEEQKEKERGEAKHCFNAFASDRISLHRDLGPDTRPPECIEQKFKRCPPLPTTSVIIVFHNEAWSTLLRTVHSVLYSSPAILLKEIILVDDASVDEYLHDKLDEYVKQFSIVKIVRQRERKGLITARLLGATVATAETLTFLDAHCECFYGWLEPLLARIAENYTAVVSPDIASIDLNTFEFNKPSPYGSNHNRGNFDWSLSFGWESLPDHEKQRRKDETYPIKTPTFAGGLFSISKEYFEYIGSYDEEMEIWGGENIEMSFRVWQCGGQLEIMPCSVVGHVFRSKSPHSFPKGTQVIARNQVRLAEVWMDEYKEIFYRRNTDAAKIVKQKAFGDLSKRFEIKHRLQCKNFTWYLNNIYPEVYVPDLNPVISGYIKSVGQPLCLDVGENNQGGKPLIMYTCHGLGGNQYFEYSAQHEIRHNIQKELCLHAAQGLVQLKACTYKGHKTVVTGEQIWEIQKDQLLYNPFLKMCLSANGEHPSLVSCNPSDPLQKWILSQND

B1: FGF23: T3Inh-1 (protein)
parent chain: MLGARLRLWVCALCSVCSMSVLRAYPNASPLLGSSWGGLIHLYTATARNSYHLQIHKNGHVDGAPHQTIYSALMIRSEDAGFVVITGVMSRRYLCMDFRGNIFGSHYFDPENCRFQHQTLENGYDVYHSPQYHFLVSLGRAKRAFLPGMNPPPYSQFLSRRNEIPLIHFNTPIPRRHTRSAEDDSERDPLNVLKPRARMTPAPASCSQELPSAEDNSPMASDPLGVVRGGRVNTHAGGTGPEGCRPFAKFI

How the values were obtained:
ppGalNAc-T3 = biological target: T1, ppGalNAc-T3; assay: intrinsic tryptophan fluorescence quenching; also UDP-Glo inhibition of purified enzyme (IC50 […]); format: binding
[1] = anti-FLAG immunoblot of cell lysates, with or without chloroquine; settings: glycan lost; control: untreated

Row | Molecule | Kd (ppGalNAc-T3) | expression_or_secretion [1]
1 | O=C(Nc1ccc(Nc2ccncc2)cc1)c1ccc(Nc2ccnc3ccc([N+](=O)[O-])cc23)cc1 [compound 1614, T3Inh-1] | ~17 µM | –
2 | B1 | – | no change
